In experiment [1] the test system is patient-derived liver cancer cell line LIXC012. Kind of experiment: Antiproliferative activity, ATPlite Luminescence Assay. In kind it is cell-based. The settings on record: FGF19-overexpressing LIXC012 cells, about 72 hours, 5% FBS; read-out: LIXC012 IC50 (cellular antiproliferative). As for the experimental part:
The antiproliferative activity of compounds are assessed in the patient-derived liver cancer cell line LIXC012 (Shanghai ChemPartner Co., LTD) by PerkinElmer ATPlite™ Luminescence Assay System. LIXC012 cell line has a FGFR-4 aberrant signaling pathway (FGF19-overexpressing). Briefly, the various test cancer cell lines are plated at a density of about 1×10^4 cells per well in Costar 96-well plates, and are incubated with different concentrations of compounds for about 72 hours in medium supplemented with 5% FBS. One lyophilized substrate solution vial is then reconstituted by adding 5 mL of substrate buffer solution, and is agitated gently until the solution is homogeneous. About 50 μL of mammalian cell lysis solution is added to 100 μL of cell suspension per well of a microplate, and the plate is shaken for about five minutes in an orbital shaker at ˜700 rpm. This procedure is used to lyse the cells and to stabilize the ATP. Next, 50 μL substrate solution is added to the wells and microplate is shaken for five minutes in an orbital shaker at ˜700 rpm. Finally, the luminescence is measured by a PerkinElmer TopCount® Microplate Scintillation Counter. Such assays, carried out with a range of doses of test compounds, allow the determination of the cellular anti-antiproliferative IC50 of the compounds of the present invention. The following table lists the IC50 values of certain compounds of the invention in the FGF19-overexpressing Patient-Derived liver cancer cell line LIXC012.

For a further experiment, the target named is T1, wild type FGFR-2 (Homo sapiens, UniProt P21802).
T1 construct: purchased Carna Biosciences, Inc
Kind of experiment: FGFR-2 wild type assay at Km (Caliper mobility shift). Format: biochemical. The note with it: wild type FGFR-2, 400 uM ATP, 25 C, 90 minutes. As to the method: (§1) In order to assess the activity of chemical compounds against the relevant kinase of interest, the Caliper LifeSciences electrophoretic mobility shift technology platform is utilized. Fluorescently labeled substrate peptide is incubated in the presence dosed levels of compounds, a set concentration of kinase and of ATP, so that a reflective proportion of the peptide is phosphorylated. At the end of the reaction, the mix of phosphorylated (product) and non-phosphorylated (substrate) peptides are passed through the microfluidic system of the Caliper LabChip® EZ Reader II, under an applied potential difference. The presence of the phosphate group on the product peptide provides a difference in mass and charge between the product peptide and the substrate peptide, resulting in a separation of the substrate and product pools in the sample. As the pools pass the LEDS within the instrument, these pools are detected and resolved as separate peaks. The ratio between these peaks therefore reflects the activity of the chemical matter at that concentration in that well, under those conditions. […]

In the next experiment the target is T2, wild type FGFR-1 (Homo sapiens, UniProt P11362).
T2 construct: purchased Carna Biosciences, Inc
The experiment is described as follows: FGFR-1 wild type assay at Km (Caliper mobility shift). In kind it is biochemical. The settings on record: wild type FGFR-1, 400 uM ATP, 25 C, 90 minutes. As for the experimental part:
as §1

The next experiment concerns the target T3, wild type FGFR-4 (Homo sapiens, UniProt P22455).
T3 construct: purchased Carna Biosciences, Inc
The experiment is described as follows: FGFR-4 wild type assay at Km (Caliper mobility shift). Format: biochemical. The note with it: wild type FGFR-4, 400 uM ATP, 25 C, 90 minutes. As to the method: In order to assess the activity of chemical compounds against the relevant kinase of interest, the Caliper LifeSciences electrophoretic mobility shift technology platform is utilized. Fluorescently labeled substrate peptide is incubated in the presence dosed levels of compounds, a set concentration of kinase and of ATP, so that a reflective proportion of the peptide is phosphorylated. At the end of the reaction, the mix of phosphorylated (product) and non-phosphorylated (substrate) peptides are passed through the microfluidic system of the Caliper LabChip® EZ Reader II, under an applied potential difference. The presence of the phosphate group on the product peptide provides a difference in mass and charge between the product peptide and the substrate peptide, resulting in a separation of the substrate and product pools in the sample. As the pools pass the LEDS within the instrument, these pools are detected and resolved as separate peaks. The ratio between these peaks therefore reflects the activity of the chemical matter at that concentration in that well, under those conditions.
FGFR-4 wild type assay at Km: In each well of a 384-well plate, 0.5 ng/ul of wild type FGFR-4 (Carna Biosciences, Inc.) was incubated in a total of 12.5 ul of buffer (100 mM HEPES pH 7.5, 0.015% Brij 35, 10 mM MgCl2, ImM DTT) with 1 uM CSKtide (5-FAM-KKKKEEIYFFFG-NH2) and 400 uM ATP at 25 C for 90 minutes in the presence or absence of a dosed concentration series of compound (1% DMSO final concentration). The reaction was stopped by the addition of 70 ul of Stop buffer (100 mM HEPES pH 7.5, 0.015% Brij 35, 35 mM EDTA and 0.2% of Coating Reagent 3 (Caliper Lifesciences)). The plate was then read on a Caliper LabChip® EZ Reader II (protocol settings: −1.9 psi, upstream voltage −700, downstream voltage −3000, post sample sip 35 s).
Such assays, carried out with a range of doses of test compounds, allow the determination of an approximate IC50 value. […] The following table lists the IC50 values of certain compounds of the invention.

Another experiment deals with T4, wild type FGFR-3 (Homo sapiens, UniProt P22607).
T4 construct: purchased Carna Biosciences, Inc
Kind of experiment: FGFR-3 wild type assay at Km (Caliper mobility shift). The note with it: wild type FGFR-3, 400 uM ATP, 25 C, 90 minutes. In kind it is biochemical. As to the method: as §1

T3 sequence (P22455 22-802): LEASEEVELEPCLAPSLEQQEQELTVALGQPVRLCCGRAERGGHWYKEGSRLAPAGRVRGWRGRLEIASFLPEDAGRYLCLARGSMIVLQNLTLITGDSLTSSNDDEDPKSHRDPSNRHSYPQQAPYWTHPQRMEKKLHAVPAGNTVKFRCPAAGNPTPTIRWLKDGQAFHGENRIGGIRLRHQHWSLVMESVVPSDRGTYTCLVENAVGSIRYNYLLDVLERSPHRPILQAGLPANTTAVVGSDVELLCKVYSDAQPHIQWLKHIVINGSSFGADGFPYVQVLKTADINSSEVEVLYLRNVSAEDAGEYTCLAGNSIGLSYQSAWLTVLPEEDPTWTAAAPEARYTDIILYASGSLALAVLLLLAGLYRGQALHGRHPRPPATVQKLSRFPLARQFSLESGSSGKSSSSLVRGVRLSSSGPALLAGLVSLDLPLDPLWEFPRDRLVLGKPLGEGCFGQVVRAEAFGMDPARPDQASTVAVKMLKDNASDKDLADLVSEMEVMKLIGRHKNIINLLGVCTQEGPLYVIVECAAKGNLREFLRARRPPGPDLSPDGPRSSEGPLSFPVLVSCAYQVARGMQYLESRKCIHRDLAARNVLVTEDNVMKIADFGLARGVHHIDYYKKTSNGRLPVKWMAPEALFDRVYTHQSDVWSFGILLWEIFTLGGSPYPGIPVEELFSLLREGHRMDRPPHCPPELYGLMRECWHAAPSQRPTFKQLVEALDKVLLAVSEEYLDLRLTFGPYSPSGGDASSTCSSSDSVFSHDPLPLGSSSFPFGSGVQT
T2 sequence (P11362 22-822): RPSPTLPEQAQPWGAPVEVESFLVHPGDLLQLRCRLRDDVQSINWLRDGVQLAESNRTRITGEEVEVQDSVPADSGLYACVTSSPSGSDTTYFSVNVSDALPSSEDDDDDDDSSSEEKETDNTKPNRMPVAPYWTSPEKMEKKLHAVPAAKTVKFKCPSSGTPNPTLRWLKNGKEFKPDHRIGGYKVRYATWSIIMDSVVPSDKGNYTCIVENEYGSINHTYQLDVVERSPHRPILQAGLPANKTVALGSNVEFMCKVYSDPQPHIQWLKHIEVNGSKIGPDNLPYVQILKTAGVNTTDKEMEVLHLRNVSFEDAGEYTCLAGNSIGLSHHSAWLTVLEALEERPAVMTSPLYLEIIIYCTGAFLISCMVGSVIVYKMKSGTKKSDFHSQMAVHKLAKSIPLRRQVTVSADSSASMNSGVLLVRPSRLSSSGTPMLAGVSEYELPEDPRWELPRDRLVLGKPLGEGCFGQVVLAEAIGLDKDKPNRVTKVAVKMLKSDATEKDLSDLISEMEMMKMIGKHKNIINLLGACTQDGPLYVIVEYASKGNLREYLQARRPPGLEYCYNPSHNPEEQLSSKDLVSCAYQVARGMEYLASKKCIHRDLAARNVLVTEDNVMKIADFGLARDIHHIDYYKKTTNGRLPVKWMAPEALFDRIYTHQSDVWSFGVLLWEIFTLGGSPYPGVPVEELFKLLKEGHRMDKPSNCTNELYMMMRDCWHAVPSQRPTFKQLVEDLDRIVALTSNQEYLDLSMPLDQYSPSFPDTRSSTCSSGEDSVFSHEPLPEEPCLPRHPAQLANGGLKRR
T1 sequence (P21802 22-821): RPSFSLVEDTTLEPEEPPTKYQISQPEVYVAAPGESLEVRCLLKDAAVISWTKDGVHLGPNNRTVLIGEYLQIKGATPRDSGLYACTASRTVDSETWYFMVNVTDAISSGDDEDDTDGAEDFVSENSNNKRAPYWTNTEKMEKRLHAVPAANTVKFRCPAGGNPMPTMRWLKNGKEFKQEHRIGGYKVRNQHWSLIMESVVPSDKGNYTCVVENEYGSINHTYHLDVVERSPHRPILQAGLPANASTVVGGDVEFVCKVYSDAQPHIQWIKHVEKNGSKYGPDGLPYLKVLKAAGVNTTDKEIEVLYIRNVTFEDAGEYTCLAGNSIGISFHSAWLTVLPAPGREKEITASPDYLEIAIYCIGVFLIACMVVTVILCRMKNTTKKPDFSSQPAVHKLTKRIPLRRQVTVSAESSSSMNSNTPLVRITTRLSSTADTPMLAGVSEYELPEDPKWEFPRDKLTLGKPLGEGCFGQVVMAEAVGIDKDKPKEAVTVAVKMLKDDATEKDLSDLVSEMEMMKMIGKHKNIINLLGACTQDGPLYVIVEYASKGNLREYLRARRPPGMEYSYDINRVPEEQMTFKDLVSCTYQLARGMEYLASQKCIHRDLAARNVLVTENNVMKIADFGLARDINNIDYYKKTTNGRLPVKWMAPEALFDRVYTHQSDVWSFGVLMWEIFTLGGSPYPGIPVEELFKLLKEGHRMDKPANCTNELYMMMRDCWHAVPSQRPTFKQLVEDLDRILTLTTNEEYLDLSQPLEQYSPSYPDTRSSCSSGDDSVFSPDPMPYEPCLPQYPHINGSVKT
T4 sequence (P22607 23-806): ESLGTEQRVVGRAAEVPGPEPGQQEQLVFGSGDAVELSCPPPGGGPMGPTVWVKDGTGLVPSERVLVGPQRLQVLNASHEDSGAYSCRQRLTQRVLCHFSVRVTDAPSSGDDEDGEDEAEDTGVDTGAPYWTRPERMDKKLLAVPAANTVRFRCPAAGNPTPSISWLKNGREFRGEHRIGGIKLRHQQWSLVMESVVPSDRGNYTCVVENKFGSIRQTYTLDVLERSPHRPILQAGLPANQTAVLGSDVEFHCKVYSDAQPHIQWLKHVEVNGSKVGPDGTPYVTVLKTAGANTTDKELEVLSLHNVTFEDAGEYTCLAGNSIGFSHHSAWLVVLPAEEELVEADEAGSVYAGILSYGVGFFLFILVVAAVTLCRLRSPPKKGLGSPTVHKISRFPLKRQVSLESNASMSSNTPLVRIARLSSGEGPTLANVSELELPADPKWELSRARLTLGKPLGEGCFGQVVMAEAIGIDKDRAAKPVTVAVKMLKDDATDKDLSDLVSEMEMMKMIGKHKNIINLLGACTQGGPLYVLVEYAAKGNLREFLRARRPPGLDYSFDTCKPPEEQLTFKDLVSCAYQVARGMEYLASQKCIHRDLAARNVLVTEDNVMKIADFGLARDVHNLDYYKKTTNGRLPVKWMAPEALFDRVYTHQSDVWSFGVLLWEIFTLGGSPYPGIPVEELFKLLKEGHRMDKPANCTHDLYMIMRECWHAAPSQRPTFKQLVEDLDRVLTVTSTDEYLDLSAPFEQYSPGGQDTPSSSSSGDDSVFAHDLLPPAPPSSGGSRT

For the molecule `C=CC(=O)Nc1cccc(C)c1Nc1ncc2cc(-c3c(Cl)c(OC)cc(OC)c3Cl)ccc2n1` [BLU9931, reference compound], in experiment [1], the IC50 was determined as 280 nM.
Consider `C=CC(=O)Nc1ccc(Cn2c(=O)c(-c3c(Cl)c(OC)cc(OC)c3Cl)cc3cnc(Nc4c(C)cccc4NC(=O)C=C)nc32)cc1` [CY-15-2, N-(4-((2-((2-acrylamido-6-methylphenyl)amino)-6-(2,6-dichloro-3,5-dimethoxyphenyl)-7-oxopyrido[2,3-d]pyrimidin-8(7H)-yl)methyl)phenyl)acrylamide], for which the IC50 on wild type FGFR-2 was > 1000 nM; at wild type FGFR-1, > 1000 nM; in experiment [1], 490 nM; at wild type FGFR-4, < 50 nM; on wild type FGFR-3, > 1000 nM.
On to `C=CC(=O)Nc1ccc(CCn2c(=O)c(-c3c(Cl)c(OC)cc(OC)c3Cl)cc3cnc(Nc4c(C)cccc4NC(=O)C=C)nc32)cc1` [CY-15-3, N-(4-(2-(2-(2-acrylamido-6-methylphenylamino)-6-(2,6-dichloro-3,5-dimethoxyphenyl)-7-oxopyrido[2,3-d]pyrimidin-8(7H)-yl)ethyl)phenyl)acrylamide], for which the IC50 at wild type FGFR-2 was > 1000 nM; on wild type FGFR-1, > 1000 nM; in experiment [1], 660 nM; at wild type FGFR-4, < 50 nM; on wild type FGFR-3, > 1000 nM.
Regarding `C=CC(=O)Nc1cccc(C)c1Nc1ncc2cc(-c3c(Cl)c(OC)cc(OC)c3Cl)c(=O)n(CC3CN(C(=O)/C=C/CN(C)C)C3)c2n1` [CY-15-4], the IC50 on wild type FGFR-4 is < 50 nM.
As to `C=CC(=O)Nc1cccc(C)c1Nc1ncc2cc(-c3c(Cl)c(OC)cc(OC)c3Cl)c(=O)n(CC3CCN(C(=O)/C=C/CN(C)C)C3)c2n1` (stereo not shown) [CY-15-5], on wild type FGFR-4, the IC50 is < 50 nM.
On the same count and under the same terms, for `C=CC(=O)Nc1cccc(C)c1Nc1ncc2cc(-c3c(Cl)c(OC)cc(OC)c3Cl)c(=O)n(CC3CCN(C(=O)/C=C/CN(C)C)CC3)c2n1` [CY-15-6] the value was < 50 nM.
On the same count and under the same terms, under `C=CC(=O)Nc1cccc(C)c1Nc1ncc2cc(-c3c(Cl)c(OC)cc(OC)c3Cl)c(=O)n(CCN3CCN(C(=O)C=C)CC3)c2n1` [CY-15-7] stands < 50 nM; under `C=CC(=O)Nc1cccc(C)c1Nc1ncc2cc(-c3c(Cl)c(OC)cc(OC)c3Cl)c(=O)n(CCCN3CCN(C(=O)C=C)CC3)c2n1` [CY-15-8], < 50 nM.

The values are drawn from patent US10253029B2, “Dual-warhead covalent inhibitors of FGFR-4” (Newave Pharmaceutical Inc., priority 2015, dated 2019).
